Consider 15 molecules from publication PMC6211316, “Synthesis and biological evaluation of 3-arylcoumarin derivatives as potential anti-diabetic agents” (Journal of Enzyme Inhibition and Medicinal Chemistry, 2018).

Where two headings read alike, the source gives them in different places.

One assay concerns the target T1, α-Glucosidase (Saccharomyces cerevisiae, UniProt P53341).
T1 construct: purchased Sigma Aldrich G0660-750UN
The assay can be described thus: biochemical. It is filed as biochemical. The protocol:
α-Glucosidase (G0660-750UN, Sigma Aldrich) and 4-Nitrophenyl α-D-glucopyranoside (PNPG, Macklin) were dissolved in phosphate buffer (pH 6.8, 100 mM), and the test compounds were dissolved in DMSO solution. The experiment was divided into blank group, control group, sample blank group, and sample group. The reagents were loaded in 96-well plates at the dose of the table (Table 8). The solution was bathed in 37 °C water for 10 min, and then enzyme solution was added. After reaction at 37 °C for 20 min, 70 μL Na2CO3 solution ([…]) was added to stop the reaction. All experiments were run in triplicate. […] Since PNPG can produce glucose and p-Nitrophenol (PNP) under the action of α-glucosidase, PNP has the greatest absorption at 405 nm. The absorbance was determined by the microplate reader, and the inhibition rate of α-glucosidase and the IC50 value of each sample were calculated according to the formula. Inhibition rate %={[(AC−AB)−(AS−ASB)]/(AC−AB)}×100% where AC is the absorbance of control group; AB is the absorbance of blank group; AS is the absorbance of sample group; ASB is the absorbance of sample blank group.

The next assay deals with AGEs formation. The assay can be described thus: In vitro inhibitory activity of AGEs formation (bovine serum albumin/glucose). The settings on record: mean ± SD (n = 3). It counts as biochemical. On the procedure: To prepare the AGEs reaction solution, 10 mg/mL of bovine serum albumin in 50 mM PBS (pH 7.4) was added to 0.2 M glucose, and 0.02% sodium azide was added to prevent bacterial growth. The reaction mixture (3.0 ml) was then mixed with various concentrations (0.5–1000 μg/mL) of the target compounds (1.0 ml) dissolved in DMSO. After incubating at 37 °C for 14 d, the fluorescence intensity of AGE was determined by a fluorospectrophotometer (PE, USA) with excitation and emission wavelengths at 350 nm and 420 nm, respectively. All experiments were run in triplicate. Aminoguanidine hydrochloride was used as a reference compound. The inhibition rate of AGEs formation and the IC50 value of each sample were calculated according to the formula. Inhibition rate %={[(AC−AB)−(AS−ASB)]/(AC−AB)}×100% where AC is the absorbance of control group(1.0 ml glucose +1.0 ml bovine serum albumin +1.0 ml sodium azide +1.0 ml DMSO); AB is the absorbance of blank group(1.0 ml PBS +1.0 ml bovine serum albumin +1.0 ml sodium azide +1.0 ml DMSO); AS is the absorbance of sample group (1.0 ml glucose +1.0 ml bovine serum albumin +1.0 ml sodium azide +1.0 ml target compound solution or Aminoguanidine hydrochloride solution); ASB is the absorbance of sample blank group (1.0 ml PBS +1.0 ml bovine serum albumin +1.0 ml sodium azide +1.0 ml target compound solution or Aminoguanidine hydrochloride solution).

Assay [1] in a line: hydroxyl radical scavenging. The note with it: mean ± SD (n = 3), read-out: OH IC50 Value. The protocol: The ability of the target compounds and vitamin C to scavenge the hydroxyl radical was evaluated with method described by Ismaili et al.[29] with slight modifications. In test tube, 1.0 ml H2O2 solution (0.03%), 1.0 ml FeSO4 solution (2 mmol.L^−1), 1.0 ml salicylic acid solution (10 mmol.L^−1) and 1.0 ml of 3-arylcoumarins and standard water solution with different concentration (0.4–2.0 mg/mL) were mixed. Finally, 1.0 ml H2O2 solution (0.03%) was added to this mixture to start the reaction. Solutions were kept at 37 °C. After 30 min, the absorbance was measured at 510 nm against the reagent blank, where the distilled water was substituted for the H2O2 solution. The percentage of OH scavenging by target compounds and vitamin C was calculated the following equation: OH scavenging effect (%)=[A0−(A1−A2)]/A0×100% where A0 is the absorbance of 1.0 ml distilled water +1.0 ml H2O2 + 1.0 ml FeSO4 + 1.0 ml salicylic acid +1.0 ml H2O2; A1 is the absorbance of 1.0 ml 3-arylcoumarins or standard +1.0 ml H2O2 + 1.0 ml FeSO4 + 1.0 ml salicylic acid +1.0 ml H2O2; A2 is the absorbance of 1.0 ml 3-arylcoumarins or standard +1.0 ml H2O2 + 1.0 ml FeSO4 + 1.0 ml absolute absolute ethanol +1.0 ml H2O2.

Assay [2] can be described thus: DPPH free radical scavenging. The note with it: mean ± SD (n = 3). The protocol:
The effect of target compounds and vitamin C to scavenge the DPPH free radical was evaluated with the method described by Villano et al.[43] with slight modifications.
Two millilitres of different concentrations of the sample solution was added to 2.0 ml of DPPH solution (0.04 mg/mL), shaken and allowed to react at room temperature for 30 min. The absorbance value was measured at 517 nm with an ultraviolet-visible spectrophotometer. The blank reference cuvette contained absolute ethanol. All measurements were performed in triplicate. IC50 values were calculated. The percentage of DPPH radical scavenging rate of the target compound is calculated as follows: DPPH free radical scavenging effect (%)=[A0−(A1−A2)]/A0×100% where A0 is the absorbance of 2.0 ml DPPH solution +2.0 ml absolute ethanol; A1 is the absorbance of 2.0 ml DPPH solution +2.0 ml 3-arylcoumarins solution or standard; A2 is the absorbance of 2.0 ml 3-arylcoumarins solution or standard +2.0 ml absolute ethanol.

A further assay concerns normal mice. The assay can be described thus: Acute hypoglycemic assay in normal mice. The note with it: 10 mg/kg of bw per os. It counts as in vivo. The protocol: (§1) STZ-induced diabetic mice and normal mice were placed in single cages with wire-net floors and deprived of food for 12 h before experimentation but allowed free access to tap water throughout. The compounds (at the doses of 10, 30, and 100 mg/kg of bw) were suspended in 0.05% Tween-80 in saline solution. Glibenclamide (10 mg/kg of bw) was suspended in the same vehicle. The target compounds were freshly prepared immediately before experimentation and administered by the intragastrical route at the doses of 10 ml/kg of bw. Control mice received only the vehicle (0.05% Tween-80 in saline solution) by the same route. Blood glucose levels were measured at 0, 1.5, 3, 5, 7, and 9 h after drugs administration.

Another assay relates to STZ-diabetic mice. The assay can be described thus: Acute hypoglycemic assay in STZ-diabetic mice. It counts as in vivo. The note with it: for Blood glucose concentration / % Variation of glycemia: STZ-diabetics mice, 10 mg/kg of bw per os. On the procedure: Type II diabetes mellitus was induced in mice by a single intraperitoneal injection of freshly prepared STZ (Sigma Aldrich) dissolved in 0.1M citrate buffer, pH 4.5, in a volume of 110 mg/kg of bw. After 7 days of STZ administration, blood glucose levels of each mouse were determined. Mice with blood glucose levels higher than 11 mM were considered diabetic and were included in the study.
as §1

[3] abbreviates: mean ± SD (n = 3), read-out: α-Glucosidase inhibitory activity IC50 Value.

T1 sequence (P53341 whole entry): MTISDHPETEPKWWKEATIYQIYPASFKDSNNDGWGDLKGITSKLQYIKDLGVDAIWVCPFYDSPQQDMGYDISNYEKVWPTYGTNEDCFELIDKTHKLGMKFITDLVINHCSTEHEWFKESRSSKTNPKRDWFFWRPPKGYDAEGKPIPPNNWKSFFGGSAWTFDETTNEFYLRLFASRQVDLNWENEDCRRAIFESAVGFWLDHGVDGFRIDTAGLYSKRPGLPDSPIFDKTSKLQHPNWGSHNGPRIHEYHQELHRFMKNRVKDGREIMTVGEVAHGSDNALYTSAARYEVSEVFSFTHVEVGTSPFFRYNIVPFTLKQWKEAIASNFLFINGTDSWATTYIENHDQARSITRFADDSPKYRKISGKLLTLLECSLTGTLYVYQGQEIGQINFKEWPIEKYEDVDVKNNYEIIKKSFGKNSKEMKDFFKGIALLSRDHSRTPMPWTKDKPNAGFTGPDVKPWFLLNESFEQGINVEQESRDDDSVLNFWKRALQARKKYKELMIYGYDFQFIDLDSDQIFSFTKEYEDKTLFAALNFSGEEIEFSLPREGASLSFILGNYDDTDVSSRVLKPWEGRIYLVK

For orientation: IC50 means the concentration needed to halve the response being measured. For `O=c1oc2c(O)cccc2cc1-c1ccc(O)cc1` [Compound 14, 8-Hydroxy-3-(4-hydroxyphenyl)-coumarin], the IC50 was 213 ± 40.3 µM on α-Glucosidase, 45.2 ± 5.28 µM in the assay with AGEs formation, greater than 1000 µM in assay [1] and 167 ± 2.01 µM in assay [2].
Regarding `Cc1ccc(-c2cc3ccc(O)cc3oc2=O)cc1` [Compound 9, 7-Hydroxy-3-(4-methylphenyl)-coumarin], the half-maximal inhibitory concentration (IC50) on α-Glucosidase (setting [3]) is 118 ± 41.5 µM; in the assay on AGEs formation, greater than 1000 µM; in assay [1] it was greater than 1000 µM; in assay [2], 60.2 ± 1.27 µM.
Consider `O=c1oc2cc(O)ccc2cc1-c1ccc(O)cc1` [Compound 12, 7-Hydroxy-3-(4-hydroxyphenyl)-coumarin], for which the values for the IC50 (at α-Glucosidase (setting [3]); in assay [1]; in assay [2]) were 19.9 ± 3.39 µM, greater than 1000 µM and 756 ± 8.31 µM, respectively.
Consider `COc1ccc(Cl)cc1C(=O)NCCc1ccc(S(=O)(=O)NC(=O)NC2CCCCC2)cc1` [Glibenclamide, reference compound], for which the Blood glucose concentration was 9.8 ± 1.5 mM with normal mice (0h); 6.4 ± 1.4 mM in the assay with normal mice (1.5h); 5.8 ± 0.8 mM in the assay on normal mice (3h); 5.0 ± 1.4 mM in the assay with normal mice (5h); 4.3 ± 0.6 mM with normal mice (7h); 4.1 ± 0.7 mM in the assay on normal mice (9h). The Blood glucose concentration in the assay with STZ-diabetic mice (0h) came to 16.9 ± 4.3 mM; in the assay on STZ-diabetic mice (1.5h), 7.2 ± 4.0 mM; in the assay on STZ-diabetic mice (3h), 6.9 ± 1.6 mM; in the assay with STZ-diabetic mice (5h) it was 6.7 ± 2.5 mM; in the assay with STZ-diabetic mice (7h), 6.5 ± 2.2 mM; with STZ-diabetic mice (9h), 4.9 ± 2.5 mM. Further, the “% Variation of glycemia” value with normal mice (1.5h) is listed as “(−34.58) %”; with normal mice (3h) it was “(−41.36) %”; in the assay with normal mice (5h), “(−49.15) %”; with normal mice (7h), “(−56.61) %”; in the assay on normal mice (9h) it was “(−58.31) %”; in the assay with STZ-diabetic mice (1.5h) it was “(−55.28) %”. Also, the “% Variation of glycemia” value in the assay on STZ-diabetic mice (3h) was “(−57.14) %”; with STZ-diabetic mice (5h), “(−55.90) %”; in the assay with STZ-diabetic mice (7h), “(−59.63) %”; in the assay on STZ-diabetic mice (9h), “(−70.81) %”. The “time of maximum hypoglycemic effect” value with STZ-diabetic mice (STZ-induced diabetic mice, 10 mg/kg of bw) is 9 h.
In the case of `O=c1oc2ccccc2cc1-c1ccc(Br)cc1` [Compound 40, 3-(4-brominephenyl)-coumarin], the IC50 on α-Glucosidase (setting [3]) was greater than 1000 µM; with AGEs formation, 13 ± 0.4 µM; in assay [1], greater than 1000 µM; in assay [2], greater than 1000 µM.
Regarding `COc1ccc(-c2cc3cccc(O)c3oc2=O)cc1` [Compound 22, 8-Hydroxy-3-(4-methoxyphenyl)-coumarin], the half-maximal inhibitory concentration (IC50) is greater than 1000 µM at α-Glucosidase, 23.1 ± 0.82 µM with AGEs formation, greater than 1000 µM in assay [1] and 15.63 ± 0.11 µM in assay [2].
Turning to `O=c1oc2c(O)c(O)ccc2cc1-c1ccc(Br)cc1` [Compound 47, 7,8-Dihydroxy-3-(4-brominephenyl)-coumarin], the IC50 on α-Glucosidase (setting [3]) was 35.7 ± 0.48 µM; with AGEs formation it was 299 ± 40.1 µM; in assay [1] it was 688 ± 49.7 µM; in assay [2], 2.37 ± 0.06 µM.
On the same counts, the results for `O=c1oc2c(O)cccc2cc1-c1ccc(Br)cc1` [Compound 45, 8-Hydroxy-3-(4-brominephenyl)-coumarin] are greater than 1000 µM, greater than 1000 µM, 596 ± 28.8 µM and 488 ± 95 µM.
On the same counts, the results for `O=c1oc2ccccc2cc1-c1ccc(O)cc1` [Compound 6, 3-(4-Hydroxyphenyl)-coumarin] are 60.88 ± 0.55 µM, greater than 1000 µM, greater than 1000 µM and greater than 1000 µM.
On the same counts, the results for `O=c1oc2cc(O)ccc2cc1-c1ccc(Br)cc1` [Compound 44, 7-Hydroxy-3-(4-brominephenyl)-coumarin] are greater than 1000 µM, 7.51 ± 0.38 µM, greater than 1000 µM and greater than 1000 µM.
For `O=c1oc2cc(O)ccc2cc1-c1ccc(F)cc1` [Compound 18, 7-Hydroxy-3-(4-fluorophenyl)-coumarin], the IC50 at α-Glucosidase (setting [3]) was 86.9 ± 1.17 µM; in the assay on AGEs formation, 20.6 ± 0.39 µM; in assay [1], greater than 1000 µM; in assay [2], greater than 1000 µM.
For `COc1ccc(-c2cc3ccc(O)cc3oc2=O)cc1OC` [Compound 37, 7-Hydroxy-3-(3,4-dimethoxyphenyl)-coumarin], the figures for the IC50 (on α-Glucosidase (setting [3]); in assay [1]; in assay [2]) were greater than 1000 µM, greater than 1000 µM and 173 ± 42.6 µM, respectively.
Turning to `COc1ccc(-c2cc3ccc(O)cc3oc2=O)cc1` [Compound 24, 7-Hydroxy-3-(4-methoxyphenyl)-coumarin], the IC50 was 27.42 ± 0.11 µM on α-Glucosidase (setting [3]), greater than 1000 µM with AGEs formation, greater than 1000 µM in assay [1] and 53.9 ± 1.83 µM in assay [2].
For `O=c1oc2cc(O)cc(O)c2cc1-c1ccc(Br)cc1` [Compound 46, 5,7-Dihydroxy-3-(4-brominephenyl)-coumarin], the IC50 was greater than 1000 µM at α-Glucosidase (setting [3]), 47.75 ± 0.15 µM in the assay with AGEs formation, greater than 1000 µM in assay [1] and greater than 1000 µM in assay [2].
Take `O=c1oc2c(O)c(O)ccc2cc1-c1ccc(O)c(O)c1` [Compound 36, 7,8-Dihydroxy-3-(3,4-dihydroxyphenyl)-coumarin]: the IC50 was 247 ± 36.2 µM at α-Glucosidase (setting [3]), 14.2 ± 1.33 µM in the assay on AGEs formation, 244 ± 11.8 µM in assay [1] and 1.33 ± 0.03 µM in assay [2].
